According to patent publication US12319655B2, “RAF kinase inhibitors and methods of use thereof” (Deciphera Pharmaceuticals, LLC, priority 2021, dated 2025):

Key:
Miapaca-2 cells = experiment: MiaPaca-2 Cell Proliferation Assay (1); format: cell-based; details: Homo sapiens, MIA PaCa-2, single agent, read-out: MiaPaca2 (1) IC50
Procedure, shortened: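 Resazurin was added after compound exposure and incubated 5-6 h, then fluorescence read at 540 nm excitation and 600 nm emission to give IC50.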

WM3928 cells = experiment: WM3928 Cell Proliferation Assay (1); format: cell-based
Procedure, shortened: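 IC50 was derived from resazurin fluorescence (ex 540, em 600 nm) after a 6–7 h dye incubation. Before that, cells had 67–72 h of compound exposure at 37 °C, 5% CO2.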

A375 cells = experiment: A375 Cell Proliferation Assay (1); format: cell-based; details: Homo sapiens, A-375
Procedure, shortened: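 Resazurin fluorescence (excitation 540 nm, emission 600 nm, after a further 5-6 h) gave IC50s from triplicate compound dilution series.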

[1] = target: A-Raf kinase (SEQ. ID No: 1) (Homo sapiens (Human), UniProt P10398, Y301D/Y302D); experiment: Biochemical Assay for A-Raf (1); details: Table J, assay version (1); read-out: ARAF (1) IC50
Procedure, shortened: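 A-Raf Y301D/Y302D at 5.55 nM phosphorylates 30.1 nM MEK with 1 mM ATP in pH 7.5 Tris buffer, 1% DMSO. Activity was read continuously as NADH oxidation at 340 nm in a pyruvate kinase/lactate dehydrogenase coupled system for 6 h at 30 °C. Rates from 4–5 h were converted to percent inhibition, and IC50 came from a four-parameter fit.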

A-Raf kinase (SEQ. ID No: 1), sequence (P10398 other isoform, or with tags, fused parts or gaps Y301D (already in the parent)/Y302D (already in the parent)): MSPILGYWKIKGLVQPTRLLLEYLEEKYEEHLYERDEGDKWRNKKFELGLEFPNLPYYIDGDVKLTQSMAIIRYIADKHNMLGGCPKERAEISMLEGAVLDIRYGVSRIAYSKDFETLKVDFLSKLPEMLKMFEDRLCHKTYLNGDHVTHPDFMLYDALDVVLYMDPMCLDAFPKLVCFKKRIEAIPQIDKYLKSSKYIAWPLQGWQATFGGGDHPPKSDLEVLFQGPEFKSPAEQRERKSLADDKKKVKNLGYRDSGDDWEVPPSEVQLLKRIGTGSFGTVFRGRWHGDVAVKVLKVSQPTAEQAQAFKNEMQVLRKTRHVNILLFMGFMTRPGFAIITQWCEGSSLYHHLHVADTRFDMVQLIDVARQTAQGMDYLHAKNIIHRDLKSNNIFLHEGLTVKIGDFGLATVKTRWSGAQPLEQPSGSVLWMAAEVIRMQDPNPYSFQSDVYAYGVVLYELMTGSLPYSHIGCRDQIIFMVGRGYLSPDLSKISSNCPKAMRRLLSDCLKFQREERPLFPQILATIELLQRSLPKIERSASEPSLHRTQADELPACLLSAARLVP

Compound | IC50 (Miapaca-2 cells) [µM] | IC50 (A375 cells) [µM] | IC50 [1] [µM] | IC50 (WM3928 cells) [µM]
COC(=O)Nc1cc(-c2cc(-c3cc(NC(=O)c4ccnc(C(F)(F)F)c4)cnc3C)ccn2)ccn1 [Example 312] | 1 to 10 | 0.1 to 0.5 | 1 to 10 | 1 to 10
Cc1nc(-c2ccnc(NC(=O)C3CC3)c2)cc(-c2cc(NC(=O)c3ccnc(C4CC4)c3)cnc2C)n1 [Example 287] | 1 to 10 | 1 to 10 | 1 to 10 | 0.1 to 0.5
Cc1ncc(NC(=O)C2CCOC(C)(C)C2)cc1-c1cccc(-c2cc(NC(=O)C3CC3)ncn2)c1 (centres unmarked) [Example 348] | 1 to 10 | 1 to 10 | 1 to 10 | 1 to 10
COC(=O)Nc1cc(-c2nccc(-c3cc(NC(=O)c4ccnc(C(C)(C)F)c4)c(F)cc3C)n2)ccn1 [Example 304] | 1 to 10 | 0.1 to 0.5 | 1 to 10 | ≤ 0.1
Cc1ncc(NC(=O)c2cncc(C(F)F)c2)cc1-c1cccc(-c2cc(NC(=O)C3CC3)ncn2)c1 [Example 280] | 1 to 10 | 0.1 to 0.5 | 1 to 10 | ≤ 0.1
Cc1ncc(NC(=O)c2ccnc(C3CC3)c2)cc1-c1cccc(-c2cc(NC(=O)C3CC3)ncn2)c1 [Example 291] | 1 to 10 | 0.1 to 0.5 | 1 to 10 | ≤ 0.1
Cc1ncc(NC(=O)c2cn(C(C)C)nn2)cc1-c1ccnc(-c2ccnc(NC(=O)C3CC3)c2)n1 [Example 281] | 1 to 10 | 1 to 10 | 1 to 10 | 1 to 10
Cc1nc(-c2ccnc(NC(=O)C3CC3)c2)cc(-c2cc(NC(=O)c3ccnc(C4(C#N)CC4)c3)cnc2C)n1 [Example 286] | 1 to 10 | 0.5 to 1 | 1 to 10 | 0.1 to 0.5
Cc1ncc(NC(=O)c2ccnc(C3CC3)c2)cc1-c1nccc(-c2ccnc(NC(=O)C3CC3)c2)n1 [Example 295] | 1 to 10 | 0.5 to 1 | 1 to 10 | 0.1 to 0.5
Cc1ncc(NC(=O)c2cnn(C(C)(C)C)c2)cc1-c1ccnc(-c2ccnc(NC(=O)C3CC3)c2)n1 [Example 283] | 1 to 10 | 0.1 to 0.5 | 1 to 10 | 0.1 to 0.5
Cc1cc(F)c(NC(=O)c2ccnc(C(F)F)c2)cc1-c1ccnc(-c2ccnc(NC(=O)C3CC3)c2)c1 [Example 307] | 1 to 10 | 0.5 to 1 | 0.5 to 1 | 0.1 to 0.5
COC(=O)Nc1cc(-c2cccc(-c3cc(NC(=O)c4ccnc(C5CC5)c4)cnc3C)c2)ccn1 [Example 288] | 1 to 10 | 1 to 10 | 1 to 10 | 1 to 10
Cc1ccc(NC(=O)c2cnnc(C3CC3)c2)cc1-c1cccc(-c2cc(NC(=O)C3CC3)ncn2)c1 [Example 284] | 1 to 10 | ≤ 0.1 | 0.5 to 1 | ≤ 0.1

The next lines start with results.

IC50 (Miapaca-2 cells) [µM] | IC50 (A375 cells) [µM] | IC50 [1] [µM] | Compound | IC50 (WM3928 cells) [µM]
1 to 10 | 0.5 to 1 | 1 to 10 | CNC(=O)c1cc(-c2nccc(-c3cc(NC(=O)c4ccnc(C(F)(F)F)c4)ccc3C)n2)ccn1 [Example 25] | 0.5 to 1
1 to 10 | ≤ 0.1 | 0.5 to 1 | CC(=O)Nc1cc(-c2cccc(-c3cc(NC(=O)c4ccnc(C(F)(F)F)c4)ccc3C)c2)ncn1 [Example 30] | ≤ 0.1
1 to 10 | ≤ 0.1 | 1 to 10 | COC(=O)Nc1cc(-c2cc(-c3cc(NC(=O)c4ccnc(C(C)(C)C#N)c4)cnc3C)ccn2)ccn1 [Example 297] | ≤ 0.1
1 to 10 | ≤ 0.1 | 1 to 10 | COC(=O)Nc1cc(-c2cccc(-c3cc(NC(=O)c4ccnc(C(C)(C)C#N)c4)cnc3C)c2)ccn1 [Example 282] | 0.1 to 0.5
1 to 10 | 0.1 to 0.5 | 1 to 10 | COC(=O)Nc1cc(-c2cnnc(-c3cc(NC(=O)c4ccnc(C(C)(C)C#N)c4)c(F)cc3C)c2)ccn1 [Example 299] | 0.5 to 1
1 to 10 | ≤ 0.1 | 0.5 to 1 | CC(=O)Nc1cc(-c2nccc(-c3cc(NC(=O)c4ccnc(C(F)(F)F)c4)ccc3C)n2)ccn1 [Example 24] | ≤ 0.1
1 to 10 | ≤ 0.1 | 1 to 10 | Cc1cc(F)c(NC(=O)c2ccnc(C(C)(C)F)c2)cc1-c1ccnc(-c2ccnc(NC(=O)C3CC3)c2)c1 [Example 300] | ≤ 0.1
1 to 10 | ≤ 0.1 | 1 to 10 | Cc1ccc(NC(=O)c2ccnc(C(C)(C)C#N)c2)cc1-c1ccnc(-c2ccnc3c2CC(=O)N3)c1 [Example 23] | ≤ 0.1
1 to 10 | 1 to 10 | 1 to 10 | Cc1ccc(NC(=O)c2ccnc(C(C)(C)C#N)c2)cc1-c1nccc(-c2ccnc3c2CC(=O)N3)n1 [Example 22] | ≤ 0.1
1 to 10 | 0.1 to 0.5 | 1 to 10 | COC(=O)Nc1cc(-c2cnnc(-c3cc(NC(=O)c4ccnc(C(C)(C)C#N)c4)ccc3C)c2)ccn1 [Example 305] | 0.1 to 0.5
1 to 10 | 0.1 to 0.5 | 1 to 10 | CC(=O)Nc1cc(-c2cncc(-c3cc(NC(=O)c4ccnc(C(F)(F)F)c4)ccc3C)n2)ccn1 [Example 29] | ≤ 0.1
1 to 10 | 0.1 to 0.5 | 1 to 10 | Cc1ncc(NC(=O)c2ccnc(C(C)(C)C#N)c2)cc1-c1cccc(-c2ccnc(C(N)=O)c2)c1 [Example 301] | 0.1 to 0.5
1 to 10 | ≤ 0.1 | 1 to 10 | COC(=O)Nc1cc(-c2cc(-c3cc(NC(=O)c4ccnc(C(C)(C)C#N)c4)c(F)cc3C)ccn2)ccn1 [Example 308] | ≤ 0.1
1 to 10 | ≤ 0.1 | 1 to 10 | CNC(=O)c1cc(-c2cc(-c3cc(NC(=O)c4ccnc(C(F)(F)F)c4)ccc3C)cc(C3CC3)n2)ccn1 [Example 27] | ≤ 0.1
1 to 10 | 1 to 10 | 1 to 10 | COC(=O)Nc1nccc(-c2cccc(-c3cc(NC(=O)c4ccnc(C(C)(C)C#N)c4)cnc3C)c2)n1 [Example 290] | 0.5 to 1
1 to 10 | 0.1 to 0.5 | 1 to 10 | Cc1cc(F)c(NC(=O)c2ccnc(C(C)(C)C#N)c2)cc1-c1cc(-c2ccnc(NC(=O)C3CC3)c2)cnn1 [Example 298] | 0.1 to 0.5
 | 0.1 to 0.5 | 1 to 10 | CNC(=O)c1cc(-c2cc(-c3cc(NC(=O)c4ccnc(C(C)(C)F)c4)ccc3C)cnc2C)ccn1 [Example 371] | 0.1 to 0.5
